Measured values as given in patent publication US11993640B2, “Treating inflammatory lung disease” (United States Government as represented by the Department …, priority 2019, dated 2024).
Like-named read-outs stand apart in the source and are kept apart here. Non-standard residues stand in square brackets, D forms with d. Residues, ends and D or L forms follow the SMILES beside them. *: point of attachment. Phenylacetyl(2,3,4,5,6-F5) = O=C(Cc1c(F)c(F)c(F)c(F)c1F)*; Phe(F5) = N[C@@H](Cc1c(F)c(F)c(F)c(F)c1F)C(=O)O; hArg = N=C(N)NCCCC[C@H](N)C(=O)O; 12Ado = NCCCCCCCCCCCC(=O)O; Nle = CCCC[C@H](N)C(=O)O; Orn = NCCC[C@H](N)C(=O)O; Abu = CC[C@H](N)C(=O)O; PhAc = O=C(Cc1ccccc1)*

Key:
NCI-N87 cells = assay: In vitro cell viability (CellTiter 96), stomach cancer N87; type: cell-based, human; conditions: 5 μM, 72 h; for Relative inhibitory potency, Stomach N87: relative to MIA602 = 1, Table 3A
Experimental: (§1) The inhibitory effects of the various synthesized GHRH antagonists were tested in cell proliferation assays in various human cancer cell lines including stomach cancer (KATOIII, N87), colon cancer (HT-29), urothelial cancer (J82, RT4), pancreatic cancer (PANC-1, CFPAC-1), prostatic cancer (PC3), breast cancer (MX-1, HCC1806), ovarian cancer (SK-OV-3, OVCAR-3) and lung cancer (HCC827, H460).
(§2) Cell culture. Human cancer cell lines including pancreatic (PANC-1 and CFPAC-1), lung (HCC827 and H460), stomach (NCI-N87 and KATOIII), urothelial (J82, RT4), prostatic (PC3), breast (MX-1 and HCC 1806), colorectal (HT-29), and ovarian (SK-OV-3 and OVCAR-3) were obtained from the American Type Culture Collection (ATCC) and cultured at 37° C. in a humidified 95% air/5% CO2 atmosphere in the medium recommended by ATCC.
(§3) In vitro cell viability. Cell viability was analyzed as follows: cancer cells including pancreatic (PANC-1 and CFPAC-1), lung (HCC827 and H460), stomach (NCI-N87 and KATOIII), urothelial (J82, RT4), prostatic (PC3) and breast (MX-1 and HCC 1806), colorectal (HT-29) and ovarian (SK-OV-3 and OVCAR-3) were grown on 96 well plates to ˜60% confluence, the cells were starved for 24 h in culture medium containing 0.5% FBS. Cells were then treated with GHRH antagonists MIA602 AVR compounds at concentrations of 1, 2.5 or 5 μM, or vehicle (0.1% DMSO) in quintuplicates for 72 hours. The medium was replaced every 48 hours. Cell viability was measured using CellTiter 96 aqueous one solution kit (Promega). Inhibitory effects of tested AVR compounds in comparison to that of MIA602 are presented as inhibitory potency.
(§4) Inhibitory effects of selected AVR compounds in comparison to that of MIA602 are presented as inhibitory potency (e.g., percentage of inhibition). […] The cell lines tested including lung cancer HCC827 (FIG. 2A), pancreatic cancer CFPAC-1 (FIG. 2B), stomach cancer N87 (FIG. 2C), colon cancer HT-29 (FIG. 2D), breast cancers MX-1 and HCC1806 (FIGS. 2E, F). Based on the results of cell proliferation assay after cancer cells were treated with antagonist at concentration of 5 μM for 72H, the relative inhibitory potency of AVR antagonists in comparison to MIA-602 is summarized in Table 3 A and B. Over 60 AVR compounds were tested in 12 cancer cell lines.
Based on the results of cell proliferation assay after cancer cells were treated with antagonist at concentration of 5 µM for 72H, * at concentration of 2 µM for 72 H.

CFPAC-1 cells = assay: In vitro cell viability, pancreatic cancer CFPAC-1; type: cell-based, human; conditions: 5 μM, 72 h; for Relative inhibitory potency, Pancreatic CFPAC-1: relative to MIA602 = 1, Table 3A
Method in brief: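 Cells grown to ~60% confluence and serum-starved 24 h in 0.5% FBS, then exposed to antagonists at 5 μM (some at 2 μM) for 72 h in quintuplicate, with medium replaced every 48 h. Viability read by CellTiter 96 AQueous One (MTS). Values are inhibition relative to MIA602.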

PANC-1 cells = assay: In vitro cell viability, pancreatic cancer PANC-1; type: cell-based, human; conditions: 5 μM, 72 h; relative to MIA602 = 1; Table 3A
Experimental: as §1, §2, §3, §4

J82 cells = assay: In vitro cell viability, urothelial cancer J82; type: cell-based, human; conditions: 5 μM, 72 h; relative to MIA602 = 1; Table 3A
Experimental: as §1, §2, §3, §4

[1] = target: T1, membrane GHRH-receptors on human anterior pituitary cells (Homo sapiens, UniProt Q02643); assay: Competitive receptor binding, displacement of 125I-[His1,Nle27]-hGH-RH(1-32)NH2 from human pituitary membranes
T1 construct: Human pituitary was purchased from the National Hormone and Peptide Program; tissue National Hormone and Peptide Program; host or cells: human pituitary membrane fractions
T1 sequence (Q02643 23-423): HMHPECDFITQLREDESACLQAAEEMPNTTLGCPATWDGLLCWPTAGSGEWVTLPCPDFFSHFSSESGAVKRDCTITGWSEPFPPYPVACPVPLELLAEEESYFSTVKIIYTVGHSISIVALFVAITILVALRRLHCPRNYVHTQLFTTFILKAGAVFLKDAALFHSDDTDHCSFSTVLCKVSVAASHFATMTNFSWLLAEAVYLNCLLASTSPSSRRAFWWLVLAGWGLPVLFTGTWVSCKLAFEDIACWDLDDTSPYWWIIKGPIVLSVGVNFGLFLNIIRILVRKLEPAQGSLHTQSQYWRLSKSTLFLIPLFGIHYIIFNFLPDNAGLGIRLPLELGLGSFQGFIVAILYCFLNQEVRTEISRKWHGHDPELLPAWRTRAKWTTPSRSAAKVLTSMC
Experimental: Receptor binding affinities in vitro. Preparation of human pituitary membrane fractions and receptor binding of analogs of GH-RH were performed (Halmos G, Rekasi Z, Szoke B, Schally A V. (1993) Receptor 3:87-97). Human pituitary was purchased from the National Hormone and Peptide Program. […] Relative affinities compared to hGH-RH(1-29)NH2 were calculated as the ratio of IC50 (dose causing 50% inhibition of specific binding to receptors) of the tested peptides to the IC50 of hGH-RH(1-29)NH2. The values were calculated from technical duplicate tubes.
Nineteen new AVR analogs of GHRH were tested in the receptor binding assay. Table 6 presents the IC50 values of GHRH antagonists to membrane GHRH-receptors binding on human anterior pituitary cells.

IC50 ([1]; human anterior pituitary membranes, mean of two to three determinations, read-out: IC50) [pM]	Structure (SMILES)	Relative inhibitory potency, Stomach N87 (NCI-N87 cells)	Relative inhibitory potency, Pancreatic CFPAC-1 (CFPAC-1 cells)	Relative inhibitory potency, Pancreatic Panc-1 (PANC-1 cells)	Relative inhibitory potency, Urothelial J82 (J82 cells)	In vitro relative inhibitory potency in comparison to MIA-602, NCI-N87 (NCI-N87 cells; Table 3B)	In vitro relative inhibitory potency in comparison to MIA-602, CFPAC-1 (CFPAC-1 cells; Table 3B)	IC50 [1] [pM]
490	CCCC[C@H](NC(=O)[C@@H](NC(=O)[C@H](CC(=O)O)NC(=O)[C@H](CCC(N)=O)NC(=O)[C@H](CC(C)C)NC(=O)[C@H](CC(C)C)NC(=O)[C@H](CCCCN)NC(=O)[C@H](CCCNC(=N)N)NC(=O)[C@H](C)NC(=O)[C@H](CO)NC(=O)[C@H](CC(C)C)NC(=O)[C@H](CCC(N)=O)NC(=O)[C@H](CC)NC(=O)[C@H](CC(C)C)NC(=O)[C@@H](NC(=O)[C@H](CCCCN)NC(=O)[C@H](CCCNC(=N)N)NC(=O)[C@H](Cc1ccc(OC)cc1)NC(=O)[C@H](CCCCNC(=N)N)NC(=O)[C@H](C)NC(=O)[C@@H](NC(=O)[C@H](Cc1c(F)c(F)c(F)c(F)c1F)NC(=O)[C@@H](NC(=O)[C@H](C)NC(=O)[C@H](CC(=O)O)NC(=O)[C@@H](CCCNC(=N)N)NC(=O)[C@H](Cc1ccc(O)cc1)NC(=O)CCCCCCCCCCCNC(=O)Cc1c(F)c(F)c(F)c(F)c1F)[C@@H](C)CC)[C@@H](C)O)C(C)C)[C@@H](C)CC)C(=O)N[C@H](CCCNC(=N)N)C(=O)N[C@@H](CCCCNC(=N)N)C(=O)NC [AVR-235] ({Phenylacetyl(2,3,4,5,6-F5)-12Ado}-Y[dR]DAI[Phe(F5)]TA[hArg]Y(Me)RKVL[Abu]QLSARKLLQDI[Nle][dR][hArg]-NHMe)	2.911	1.399	1.139	1.518			
	CCCC[C@H](NC(=O)[C@@H](NC(=O)[C@H](CC(=O)O)NC(=O)[C@H](CCC(N)=O)NC(=O)[C@H](CC(C)C)NC(=O)[C@H](CC(C)C)NC(=O)[C@H](CCCN)NC(=O)[C@H](Cc1c[nH]cn1)NC(=O)[C@H](C)NC(=O)[C@H](CO)NC(=O)[C@H](CC(C)C)NC(=O)[C@H](CCC(N)=O)NC(=O)[C@H](CC)NC(=O)[C@H](CC(C)C)NC(=O)[C@@H](NC(=O)[C@H](CCCN)NC(=O)[C@H](Cc1c[nH]cn1)NC(=O)[C@H](Cc1ccc(OC)cc1)NC(=O)[C@H](CCCCNC(=N)N)NC(=O)[C@H](C)NC(=O)[C@@H](NC(=O)[C@H](Cc1c(F)c(F)c(F)c(F)c1F)NC(=O)[C@@H](NC(=O)[C@H](C)NC(=O)[C@H](CC(=O)O)NC(=O)[C@@H](CCCNC(=N)N)NC(=O)[C@H](Cc1ccc(O)cc1)NC(=O)CCCCCCCCCCCNC(=O)Cc1ccccc1)[C@@H](C)CC)[C@@H](C)O)C(C)C)[C@@H](C)CC)C(=O)N[C@H](CCCNC(=N)N)C(=O)N[C@@H](CCCCNC(=N)N)C(N)=O [MIA-602, PhAC-Ada, Tyr D-Arg, Asp, Ala, Ile, 5FPhe, Thr, Ala, Har, Tyr(Me), His, Orn, Val, Leu, Abu, Gin, Leu, Ser, Ala, His, Orn, Leu, Leu, Gin, Asp, Ile, Nle, D-Arg, Har NH2, reference compound] ({PhAc-12Ado}-Y[dR]DAI[Phe(F5)]TA[hArg]Y(Me)H[Orn]VL[Abu]QLSAH[Orn]LLQDI[Nle][dR][hArg]-NH2)	1	1	1	1	1	1	270
